Data as given in US20260029420A1, “ANTI-CB2 ANTIBODIES AND THEIR USE IN A FLOW CYTOMETRY ASSAY TO MEASURE CELL SURFACE CB2 EXPRESSION” (Hoffmann-La Roche Inc., priority 2022, published 2026).
Values joined by “and” are separate entries in the source; they are usually repeats but may differ in a detail not shown here. Identical values can stand only once.

Legend:
[1] = biological target: T1, CB2 (Homo sapiens, UniProt P34972); experiment: CB2 internalization flow cytometry assay in whole blood of working-age healthy participants; format: cell-based; conditions: for IC50: B-cells
T1 construct: measured in whole blood samples from nine different healthy human volunteers of working-age; endogenous in cells; host or cells: B-cells (and basophils and other leukocytes) in human whole blood
T1 sequence (P34972 whole entry): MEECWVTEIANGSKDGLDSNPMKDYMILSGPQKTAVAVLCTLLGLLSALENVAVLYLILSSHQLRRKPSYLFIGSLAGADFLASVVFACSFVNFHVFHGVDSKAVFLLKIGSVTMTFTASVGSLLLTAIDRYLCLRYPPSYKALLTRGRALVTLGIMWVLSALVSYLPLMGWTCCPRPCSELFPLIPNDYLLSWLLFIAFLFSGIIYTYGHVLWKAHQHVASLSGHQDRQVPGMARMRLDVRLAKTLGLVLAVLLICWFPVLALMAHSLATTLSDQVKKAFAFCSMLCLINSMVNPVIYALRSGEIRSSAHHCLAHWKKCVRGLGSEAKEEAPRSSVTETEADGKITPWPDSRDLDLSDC
Experimental: FIG. 7: IC50 determination for CB2 internalization on B-cells in response to RG7774 in whole blood of healthy participants. Human whole blood was incubated with RG7774 for 1 hour at 37° C. followed by incubation with the anti-human CB2 antibody 1/622. The expression of CB2 on the surface of B-cells was analyzed using a lineage marker mix specific for B-cells (CD45^+ CD3^− CD14^− CD19^+) and T-cells (CD45^+ CD3^+ CD14^−). The B/T-cell CB2 MFI ratio was calculated and normalized to baseline. 0 μM was set as 100% baseline receptor expression.
The CB2 is member of the G-protein coupled receptor family which upon ligand (agonist) binding can respond by internalization of the receptor into the endosomal compartment of the cell, thereby removing the respective receptor form the cell surface and initiating downstream signaling effects (Calebiro, D. et al. Best Pract Res Clin Endocrinol Metab 2018:32 (2):83-91). Such changes in cell surface expression of CB2 on B-cells in response to the treatment with the CB2 agonist RG7774 were measured in whole blood samples from nine different healthy human volunteers of working-age. Whole blood samples were treated with eight compound concentrations in duplicates to determine IC50 of RG7774 using a newly developed flow cytometry assay.
Na-Heparin whole blood samples were incubated in a 96-well plate with RG7774 for 1 hour at 37° C. in a humidified incubator with 5% CO2. Samples were harvested from the 96-well plate and 100 μl were transferred to labeled 5 ml Polystyrene Round Bottom Tubes (Becton Dickinson, Cat #352052). The unlabeled anti-CB2 antibody clone 1/622 was diluted to 50μg/ml with cell staining buffer (BioLegend, Cat #420201). 100 μl diluted anti-CB2 antibody was added to each tube and incubated for 30 minutes at 4° C. For the red blood cell lysis 10× BD PharmLyse lysing buffer (Becton Dickinson, Cat #55899) was diluted to 1× with distilled water and prewarmed to approximately 20° C. After the CB2 antibody incubation 2 ml of prewarmed 1× BD PharmLyse lysing buffer was added to each tube, mixed and incubated for 15 minutes at approximately 20° C. After the incubation, the tubes were centrifuged for 5 minutes at 250×g and 4° C. The supernatant was removed completely, cells were washed two times with cold cell staining buffer and supernatant removed completely after the centrifugation. Human FcR Blocking Reagent (Miltenyi Biotech, Cat #130-059-901) was diluted according to the package insert instructions with cold cell staining buffer. To each sample 50 μl was added, mixed and incubated for 10 minutes at 4° C. The secondary antibody Goat F(ab′)2 Anti-Mouse IgG3 PE (Southern Biotech, Cat #1102-09) was diluted 1:25 in cold cell staining buffer. To each sample 50 μl was added, mixed and incubated for 30 minutes at 4° C. in the dark. […]
For determination of cell surface expression of CB2 on B-cells, median fluorescent intensity (MFI) was analyzed by gating around the CD45^+ CD3^− CD14^− CD19^+ B-cells (see gating strategy in FIG. 6A to FIG. 6E) and acquiring a minimum of 2000 events in this gate (FIG. 6F). With the lineage marker mix other cell populations like T-cells (CD45^+ CD3^+ CD14^−), Monocytes (CD45^+ CD3^− CD14^+), Basophils (CD45^+ CD3^− CD14^− CD19^− CD193^+ IgE^+), NK cells (CD45^+ CD3^− CD14^− CD19^− CD193^− IgE^− CD16^+ CD56^+), Eosinophils (CD45^+ CD16^−) and Neutrophils (CD45^+ CD16^+) could be analyzed.

[2] = biological target: CB2 (Macaca fascicularis, UniProt G7NVV5); experiment: In vivo CB2 internalization on B-cells upon oral dosing in Cynomolgus monkeys; parameters: species or system Cynomolgus monkey
Chain of CB2 (Macaca fascicularis, UniProt G7NVV5) (G7NVV5 1-360): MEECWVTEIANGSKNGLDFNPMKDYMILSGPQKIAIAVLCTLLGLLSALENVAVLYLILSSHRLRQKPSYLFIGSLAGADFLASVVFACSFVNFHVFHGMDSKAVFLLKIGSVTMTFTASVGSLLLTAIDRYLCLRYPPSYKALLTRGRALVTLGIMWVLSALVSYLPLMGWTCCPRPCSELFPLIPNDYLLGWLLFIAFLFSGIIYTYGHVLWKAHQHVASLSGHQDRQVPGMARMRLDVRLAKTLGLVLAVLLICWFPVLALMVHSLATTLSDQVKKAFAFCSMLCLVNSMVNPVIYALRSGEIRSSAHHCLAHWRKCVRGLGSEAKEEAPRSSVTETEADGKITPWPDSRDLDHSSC
Experimental: FIG. 11: In vivo feasibility for the new CB2 flow cytometry assay to monitor pharmacodynamic response in vitro on B-cells upon oral dosing. Six healthy Cynomolgus monkeys were dosed with three different doses of an oral micro suspension of RG7774 with two animals per dose group. Blood drawn at different time points was incubated with the anti-human CB2 antibody 1/622. The expression of CB2 on the surface of B-cells was analyzed using a lineage marker mix specific for B-cells and T-cells. The B/T-cell CB2 MFI ratio was calculated and normalized to baseline. 0 μM served as 100% baseline receptor expression. For the animal Mina, blood samples could only be taken up to 1 hour after experimental start, since the animal had to be remove of the study due to a rectal prolapse.
FIG. 12: Single dose in vivo study monitoring the pharmacodynomic effect of RG7774 on CB2 expression on B-cells in Cynomolgus upon oral dosing. Three healthy cynomolgus monkeys were dosed with 100 mg/kg of the CB2 agonist RG7774. The blood draw at different time points was followed by the incubation with the anti-human CB2 antibody 1/622. The expression of CB2 on the surface of B-cells was analyzed using a lineage marker mix specific for B-cells and T-cells. The B/T-cell CB2 MFI ratio was calculated and normalized to baseline. 0 μM served as 100% baseline receptor expression. […] Due to a storage effect of the antibody working dilution (5 μg/sample) of the anti-human CB2 Ab 1/622 the 4 and 7 hours' time point have been excluded. The working dilution of this antibody is only stable for 2 hours on ice.
The feasibility of applying the newly developed CB2 flow cytometry assay as an assay to monitor pharmacodynamic response to oral doses of RG7774 was evaluated in three groups of two Cynomolgus monkeys. Upon oral administration of three different single doses of a micro suspension of 0.5, 5 and 100 mg/kg RG7774 respectively, blood samples from all animals were taken at the selected time points: 0 (pre-dose) and 0.25, 0.5, 1, 2, 4, 7 and 24 h post dosing and subjected to the CB2 flow cytometry analysis (FIG. 11).
In this in vivo cyno study three cynomolgus monkeys were orally dosed with 100 mg/kg of RG7774. Blood sampling for TE-assay was performed at selected time points: −96, −24 (both time points not shown), 0 (predose) and 0.25, 0.5, 1, 2, 4, 7, 24, 31, 48 and 72 hours post-dosing (FIG. 12).

Structure (SMILES): Cn1nnnc1Cn1nnc2c(N3CC[C@H](O)C3)nc(C(C)(C)C)nc21 [RG7774, (S)-1-[5-tert-Butyl-3-(1-methyl-1H-tetrazol-5-ylmethyl)-3H-[1,2,3]triazolo [4,5-d]pyrimidin-7-yl]-pyrrolidin-3-ol]
- reduction of the CB2 cell surface expression ([1]; Basophils (data not shown)): can also be detected
- Fold change vs HPs of mean IC50 (CB2 on B-cells) ([1]; Healthy Participants (working-age), reference group): 1
- IC50 ([1]; IC50, individual working-age healthy donors, whole blood 1 hour 37° C., B/T-cell CB2 MFI ratio): 125 nM and 81.6 nM and 64.7 nM and 86.7 nM and 64.3 nM and 144 nM
- IC50 ([1]; Individual IC50 values, range over donors, healthy human participants): 64.3 to 144 nM
- reduction of the CB2 cell surface expression ([1]; T-cells, Monocytes, NK-cells, Eosinophils and Neutrophils (data not shown)): has not been observed
- onset of pharmacodynamic effect on CB2 surface expression on B-cells ([2]; 100 mg/kg oral): ≤ 15 min
- duration of reduction of CB2 expression on B-cells ([2]; single oral doses 0.5, 5 and 100 mg/kg): around 24 hours
- reduction relative to individual baseline CB2 expression on B-cells ([2]; single oral doses 0.5, 5 and 100 mg/kg micro suspension): dose dependent reduction
- responder status in vivo ([2]; three cynomolgus monkeys, 100 mg/kg oral): One out of three cynos is a non-responder
